# Entries after “also recorded” stand apart in the source; their conditions may differ. Read-outs that look alike come from different tables or passages of the source.
# What was measured:
# CXXC5-DVL interaction = biological target: T1, CXXC5-DVL interaction (Homo sapiens, UniProt O14640); assay: Dvl-CXXC5 in vitro binding assay, (PTD-DBMP)-(PZD-DVL), concentration dependent
# T1 sequence (O14640 251-323 limits assumed): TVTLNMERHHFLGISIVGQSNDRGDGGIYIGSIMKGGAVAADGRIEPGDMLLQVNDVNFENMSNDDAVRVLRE
# HFD-fed mice = assay: HFD-induced obesity/diabetes mice, 5-day oral courses at weeks 8/9 and 12; type: in vivo; details: for fasting glucose level: A3334, A3051, I3O 25, sitagliptin 50, metformin 100 mg/kg
# From the text: Animals. The generation of Cxxc5^−/− mice has been described previously. Cxxc5 heterozygous mice were intercrossed for four generations to obtain littermate wild-type and Cxxc5^−/− mice and were maintained on a C57BL/6 background. Six-week-old Cxxc5^+/+ and Cxxc5^−/− mice were fed HFD for 8 weeks. Wild-type male C57BL/6 mice (KOATECH, Seoul, Korea) were fed HFD consisting of 60% calories from fat (Research Diet, D12492) for 8 weeks. To validate that the insulin resistance mouse model was successfully established, fasting glucose levels were assessed with a One Touch Ultra glucometer (LifeScan). Subsequently, each HFD-fed mouse with a fasting glucose level higher than 16.7 mmol/L was orally administered A3334 (25 mg kg^−1), sitagliptin (50 mg kg^−1), or metformin (100 mg kg^−1) each day for 5 days at weeks 8 and 12. After the removal of the drugs, mice were maintained for 3 weeks on the HFD. To monitor pancreas regeneration, six-week-old Cxxc5^+/+ and Cxxc5^−/− mice were fed an HFD as above. After dietary treatment for 4 weeks, the mice were intraperitoneally injected with STZ (50 mg/kg/d) for 1 week and the control group were injected with saline. After 2 weeks, Cxxc5^+/+ mice were administered A3334 (25 mg kg^−1) and sitagliptin (50 mg kg^−1) per day by oral gavage for 4 weeks. For GTT or ITT, mice were injected with D-glucose (1.5 g/kg body weight) after overnight starvation or human insulin (0.75 units/kg body weight) after 4 h starvation, respectively. Tail blood was drawn at 0, 15, 30, 60, 120, 180 min intervals and blood glucose level was measured with a One Touch Ultra glucometer. All mice were maintained under temperature-controlled and light-controlled (standard 12 h light/dark cycle) conditions and provided with food and water ad libitum. All protocols were reviewed and approved by the Institutional Review Board of Severance Hospital, Yonsei University College of Medicine (09-013).
# Blood chemistry. Total blood of mice was collected by cardiac puncture after fasting. The blood was allowed to clot for 30 min and was then centrifuged for 10 min at 1,000×g to obtain supernatant to measure metabolic parameters. ELISA assay kits were used to assess serum insulin (Millipore), serum FFA (Cayman Chemical), serum adiponectin (ABclonal). The insulin function test was evaluated by HOMA-IR and was calculated as fasting plasma glucose (m mol/l)×fasting serum insulin (mU/l)/22.5. Serum chemistry variables included total cholesterol, HDL-cholesterol, glucose, TG, ALT, AST, ALP, Ca, and Mg concentration. The calibration of serum parameters was performed using the quality control card supplied with the FUJI DRI-CHEM slides whenever slides from a new lot were used. […]
# Hematoxylin and eosin (H&E) staining. Dissected tissues were fixed in 4% neutral paraformaldehyde and embedded in paraffin. The paraffin sections were cut at a thickness of 4 μm and subjected to H&E staining. The adipocyte cell size was measured in 20 randomly chosen microscopic areas from 3 independent animals using a Nikon bright-field optical microscope (Nikon TE-2000U). The average adipocyte size was determined using Image J software. […]
# Metabolic monitoring and body composition. Metabolic performance (energy intake and energy expenditure) was studied using a PHENOMASTER automated combined indirect calorimetry system (TSE system GmBH). The mice were first acclimated for 24 h in a metabolic chamber and were provided with food and water. They were then subsequently evaluated for 3 days to measure oxygen consumption (VO2), carbon dioxide production (VCO2), ambulatory counts, and respiratory exchange ratio. An LF50 body composition analyzer (Bruker) was used to determine body composition (lean body mass and total body fat) of the mice. The temperature for these studies remained at 22° C., with a 12 h light/dark cycle. Standard in-house software was used for energy expenditure.
# Quantitative real-time polymerase chain reaction (PCR). […]
# MCD-induced NASH mice = assay: MCD diet-induced NASH mice; type: in vivo; details: MCD diet 7 weeks; for hepatosteatosis (H&E): then 25 mg/kg daily oral gavage 3 weeks
# Method: NASH study. Eight-week-old wild-type male C57BL/6N mice (KOATECH, Seoul, Korea) were fed on the methionine-choline deficient (MCD) diet for 7 weeks, followed by treatment with vehicle, A3334, A3051, or I3O of (25 mg kg^−1) sitagliptin (25 mg kg^−1) for another 3 weeks via daily oral gavage.
# Collagen staining. 4 µm-liver tissues sections were stained using two common collagen staining methods. For Masson's trichrome staining, slides were fixed in Bouin's solution for 1 h. After incubation in Weigert's iron hematoxylin solution for 10 min, the slides were stained with Biebrich Scarlet-Acid Fuchsin and Aniline blue for 5 min. The collagen fibers were stained blue and the nuclei were stained black. For picrosirius red staining, sections were stained with Weigert's solution for 8 min and picrosirius red for 1 h. The collagen fibers were stained red with blue nuclei.
# normal (Chow) mice = assay: normal diet (NCD/Chow) fed mice treated with A3334; type: in vivo
# From the text: No effect of A3334 on mice fed with normal diet. To evaluate whether the A3334 treatment would have any effect on normal diet fed mice, C57BL/6N mice were fed normal diet for 16 weeks with or without oral administration of 25 mpk A3334.
# [1] = FIG. 33A-33C, unit inferred, read-out: IC50, in vitro (PTD-DBMP)-(PZD-DVL) binding analyses
# [2] = HFD mice, p.o. daily 5 days at weeks 8/9 and 12
# [3] = HFD mice, 5-day courses at weeks 8/9 and 12, A3334 25 mg/kg, 25 mg/kg
compound,measurement,setting,value
"CO/N=C1/C(=C2/C(=O)Nc3cc(Cl)c(Cl)cc32)Nc2ccccc21 [Compound A3051, 5,6-dichloroindirubin-3′-methoxime]",IC50,CXXC5-DVL interaction; [1],7.71 nM
same,fasting glucose level,HFD-fed mice; [2],"also reduced fasting glucose. However, effects of A3051 and I3O is similar to or little bit weaker than SITA"
same,hepatosteatosis (H&E),MCD-induced NASH mice,"also reduced hepatosteatosis, but revealed only marginal effects compared to A3334"
"COc1ccc2c(c1)/C(=C1/Nc3ccccc3/C1=N\O)C(=O)N2 [Compound A3334, 5-Methoxyindirubin-3′-oxime]",IC50,"CXXC5-DVL interaction; FIG. 10B, read-out: CXXC5-Dvl PPI inhibition IC50",63.1 nM
same,IC50,CXXC5-DVL interaction; [1],25.8 nM
same,"effect on normal diet fed mice (fat size, organ weight, ALT and AST)",normal (Chow) mice; 25 mg/kg/d p.o.,"has no effect in NCD mice; also recorded: did not have any effect on normal (Chow) mice; also recorded: no observation of metabolic disease phenotypes; also recorded: did not show any differences on size of fats (FIG. 36A-36B), weight of organs (FIG. 36D), and level of ALT and AST in blood serum"
same,histology of normal diet fed mice,normal (Chow) mice; 25 mpk p.o.,no histological differences were observed
same,thermogenesis and beige-fat markers in scWAT,HFD-fed mice; HFD (DIO) mice,exhibited elevated thermogenesis and beige-fat markers
same,Ca++ and Mg++ levels in serum,HFD-fed mice; HFD mice,without any effect on Ca^++ and Mg^++ imbalance; also recorded: not significantly changed
same,F4/80+ and CD11b+ cells / inflammation in adipose tissue,HFD-fed mice; HFD mice,the populations of F4/80^+ and CD11b^+ cells decreased; also recorded: also suppressed by A3334
same,energy expenditure and activity,HFD-fed mice; HFD mice,increases energy expenditure via enhancing brown- and beige-fat activation; also recorded: higher energy expenditure and more active behavior than vehicle-treated mice
same,mRNA of M1 and M2 macrophage marker genes in epiWAT,HFD-fed mice; HFD mice,"decreased and increased in the epiWAT of A3334-treated mice, respectively"
same,respiratory exchange ratio,HFD-fed mice; HFD mice,lower respiratory exchange ratio
same,"serum ALT, AST, FFA (and TG)",HFD-fed mice; HFD mice,mostly suppressed by the A3334 treatment; also recorded: reduced by A3334; also recorded: also lowered by A3334; also recorded: significantly lowered by A3334
same,"transition of brown adipocytes to white adipocytes, UCP1 and GLUT4",HFD-fed mice; HFD mice,suppressed by the A3334 treatment together with recovery of the levels of UCP1 and GLUT4
same,serum adiponectin level,HFD-fed mice; HFD mice (FIG. 38G),increased by A3334
same,glucose tolerance and insulin tolerance (GTT/ITT),HFD-fed mice; [3],significantly improved the systemic glucose tolerance and insulin resistance; also recorded: most significantly reduced by A3334
same,"insulin resistance (fasting insulin, HOMA-IR)",HFD-fed mice; [3],improves diet-induced obesity and insulin resistance; also recorded: improved insulin resistance; also recorded: reduced by A3334; also recorded: mostly resolved by A3334 administration
same,body weight and food intake,"HFD-fed mice; HFD mice, A3334 25 mg/kg",the body weights were decreased without significant changes in food intake
same,"fat mass (body composition, tissue weights)","HFD-fed mice; HFD mice, A3334 25 mg/kg",reduction of overall fat mass
same,"levels of GTT/ITT, total cholesterol, fasting glucose, triglyceride, FFAs in serum","HFD-fed mice; HFD mice, A3334 25, metformin 100, sitagliptin 50 mpk (FIG. 38B-38F)",most significantly reduced by A3334
same,"hepatic steatosis (lipid droplets, fatty liver, hepatic TG)","HFD-fed mice; HFD mice, H&E, Oil Red O",did not form lipid droplets with a reduction in the hepatic TG levels; also recorded: totally abolished by the A3334 treatment; also recorded: suppressed by A3334
same,Cxxc5 and β-catenin expression in epiWAT,"HFD-fed mice; HFD mice, IHC",Cxxc5 expression was mostly abolished and only a small amount remained in the nucleus with the elevation of nuclear β-catenin
same,UCP1 protein level in BAT and scWAT,"HFD-fed mice; HFD mice, IHC",the protein level increment of the major thermogenin uncoupling protein 1 (UCP1) was confirmed in BAT and scWAT
same,crown-like structures and adipocyte size in white adipose tissue,"HFD-fed mice; HFD mice, epiWAT/WAT, H&E",significantly decreased the number of CLSs as well as the size of adipocytes; also recorded: suppressed HFD-induced increase in cell size and the expression of PPARγ and C/EBPα; also recorded: inhibited by the A3334 treatment
same,oxygen consumption (VO2) and carbon dioxide production (VCO2),"HFD-fed mice; HFD mice, light and dark periods",consumed higher oxygen (VO2) and exhaled more carbon dioxide (VCO2)
same,Wnt/β-catenin signaling target genes in liver,"HFD-fed mice; HFD mice, mRNA",induction of Wnt/β-catenin signaling target genes; also recorded: significantly increased by A3334 treatment
same,Wnt/β-catenin target genes and lipogenesis/inflammation genes in white adipose tissue,"HFD-fed mice; HFD mice, mRNA",upregulated with the regression of the lipogenesis genes; also recorded: significantly lowered by the A3334 treatment
same,lipogenesis and gluconeogenesis genes in liver,"HFD-fed mice; HFD mice, mRNA","repressed in the liver of A3334-treated mice; also recorded: significantly lowered by the A3334 treatment; also recorded: reduced by both A3334 and SITA, but A3334 showed better effectiveness"
same,thermogenesis / mitochondria biogenesis markers in BAT,"HFD-fed mice; HFD mice, mRNA",significantly elevated expression levels of the key thermogenesis markers; also recorded: all increased by the A3334 treatment
same,persistence of fasting glucose control after end of treatment,"HFD-fed mice; HFD mice, p.o. daily 5 days at weeks 8/9 and 12, A3334 25, sitagliptin 50, metformin 100 mg/kg",prolonged effectiveness for the control of fasting glucose levels; also recorded: unexpected long-lasting glucose controlling effect; also recorded: long lasting effect in suppression of fast glucose level; also recorded: most significant and long last effects on fasting glucose control effect
same,fasting glucose level,HFD-fed mice; [2],lower in the A3334 treatment than in the sitagliptin and metformin treatment groups; also recorded: reduced similarly by treatment with all of these compounds at initial applications
same,"endocrine and metabolic parameters: total cholesterol, HDL-cholesterol, TG, adiponectin","HFD-fed mice; HFD mice, plasma, overnight fasted",much better effects than sitagliptin- and metformin-treated mice
same,"secretory proteins/adipokines, protein chip","HFD-fed mice; HFD mice, serum",decreased the expression levels of various secretory proteins
same,ALT and AST levels,MCD-induced NASH mice; then 25 mg/kg daily 3 weeks,mostly abolished by A3334 treatment
same,FFAs and TG in serum,MCD-induced NASH mice; then 25 mg/kg daily 3 weeks,mostly abolished with A3334 treatment
same,"fibrosis, histological analyses",MCD-induced NASH mice; then 25 mg/kg daily 3 weeks,improvement of the MCD-diet induced fibrosis by A3334
same,"liver mRNA of pro-inflammation, FA oxidation, apoptosis and fibrosis markers",MCD-induced NASH mice; then 25 mg/kg daily 3 weeks,significantly reduced by A3334
same,hepatosteatosis (H&E),MCD-induced NASH mice,significantly abolished by A3334 co-treatment

# From patent US20240425457A1, “COMPOSITIONS AND METHODS FOR SUPPRESSING AND/OR TREATING METABOLIC DISEASES AND/OR A CLINICAL CONDITION THEREOF” (CK Biotech Inc., priority 2018, published 2024)
